Assay results as given in patent publication EP1923473B1, “Bis-diglycolamides (BISDGA) as new extractants for lanthanides [Ln(III)] and actinides [An(III)] from aqueous high-level wastes” (Universidad Autónoma de Madrid, priority 2006, dated 2008).

Assay: Batch extraction from simulated HLLW from the PUREX process
Format: physicochemical
Conditions: 0.1 mol/L in TPH/1-octanol (90:10)
Description: The feed solution used for the extraction tests is a simulated solution of an HLLW from the PUREX process, the composition of which is shown in Table 4. Table 4: Composition of the simulated HLLW-PUREX solution used for the extraction tests
The composition of the HLLW corresponds to a burn-up of 33 GWd/tHM, the generated volume of HLLW being 5000 1/t of fuel. The feed was spiked with ^241Am, ^244Cm, ^252Cf and ^152Eu. Oxalic acid and N-(2-hydroxyethyl)ethylenediaminotriacetate (HEDTA) were also added before the extraction tests.
500 µL of the aqueous and organic phases were spiked with 10 µL of a tracer solution containing 241Am, 244Cm, 252Cf and ^152Eu, and were equilibrated for 10 minutes while they were stirred vigorously in a vortex stirrer. After the separation of the phases by centrifugation, 200 µL aliquots of each phase were taken for the determination of the concentration of ^241Am and ^152Eu using a high-purity germanium spectrometer system (EG&G Ortec). The nuclides ^241Am, ^244Cm and ^252Cf were measured by alpha spectrometry with an α-Analyst device of the company Canberra-Packard GmbH, Germany.
The concentrations of the stable elements were determined by mass spectrometry with an inductively coupled plasma source (ICP-MS) in a DRC Elan 6100 device of Perkin Elmer Sciex. The aqueous phase was measured directly after the appropriate dilution. The organic phase was analyzed after having mineralized the organic matter by microwave acid digestion and subsequent dilution.
The distribution coefficients were calculated for each element according to section C).
A 0.1 mol/L solution of compound 4 in the "TPH/1-octanol (90:10)%vol" mixture was prepared. Extraction experiments were carried out with said simulated HLLW in a pure form and also adding oxalic acid and HEDTA to it. These complexing agents have shown to be effective in the DIAMEX process for the complexing of Mo, Zr (H2C2O4) and Pd (HEDTA).
Extraction experiments were carried out with said simulated HLLW in a pure form and also adding oxalic acid and HEDTA to it.

[1] = Oxalic acid 0.2 mol/L, HEDTA 0.05 mol/L, TBP 0.5 mol/L
[2] = Oxalic acid 0.2 mol/L, HEDTA 0.05 mol/L, TBP No
[3] = Oxalic acid 0.3 mol/L, HEDTA 0.05 mol/L, TBP 0.5 mol/L
[4] = Oxalic acid 0.3 mol/L, HEDTA 0.05 mol/L, TBP No
[5] = Oxalic acid No, HEDTA No, TBP 0.5 mol/L
[6] = Oxalic acid No, HEDTA No, TBP No

2-Dioctylcarbamoylmethoxy-N-[3-[(2-dioctylcarbamoyl-methoxy-acetylamino)methyl]benzyl]acetamide [Compound 4]
Distribution coefficients Ag [1]: 0.013
Distribution coefficients Ba [1]: 0.0002
Distribution coefficients Cd [1]: 0.035
Distribution coefficients Ce [1]: 16
Distribution coefficients Cf-252 [1]: 702
Distribution coefficients Cm-244 [1]: 83
Distribution coefficients Cs [1]: 0.000087
Distribution coefficients Eu [1]: 362
Distribution coefficients Eu-152 [1]: 430
Distribution coefficients Gd [1]: 91
Distribution coefficients La [1]: 10
Distribution coefficients Mo [1]: 0.065
Distribution coefficients Nd [1]: 52
Distribution coefficients Pd [1]: 0.081
Distribution coefficients Pr [1]: 26
Distribution coefficients Rb [1]: 0.0082
Distribution coefficients Rh [1]: 0.00068
Distribution coefficients Ru [1]: 0.29
Distribution coefficients Sm [1]: 253
Distribution coefficients Y [1]: 1698
Distribution coefficients Zr [1]: 0.062
Distribution coefficients Ag [2]: 0.013
Distribution coefficients Ba [2]: 0.00019
Distribution coefficients Cd [2]: 0.034
Distribution coefficients Ce [2]: 36
Distribution coefficients Cf-252 [2]: 2057
Distribution coefficients Cm-244 [2]: 262
Distribution coefficients Cs [2]: 0.000087
Distribution coefficients Eu [2]: 764
Distribution coefficients Eu-152 [2]: 379
Distribution coefficients Gd [2]: 239
Distribution coefficients La [2]: 21
Distribution coefficients Mo [2]: 0.087
Distribution coefficients Nd [2]: 142
Distribution coefficients Pd [2]: 0.073
Distribution coefficients Pr [2]: 59
Distribution coefficients Rb [2]: 0.0093
Distribution coefficients Rh [2]: 0.00086
Distribution coefficients Ru [2]: 0.29
Distribution coefficients Sm [2]: 690
Distribution coefficients Y [2]: 1766
Distribution coefficients Zr [2]: 0.096
Distribution coefficients Ag [3]: 0.012
Distribution coefficients Ba [3]: 0.0002
Distribution coefficients Cd [3]: 0.036
Distribution coefficients Ce [3]: 21
Distribution coefficients Cf-252 [3]: 1403
Distribution coefficients Cm-244 [3]: 133
Distribution coefficients Cs [3]: 0.000087
Distribution coefficients Eu [3]: 446
Distribution coefficients Eu-152 [3]: 348
Distribution coefficients Gd [3]: 190
Distribution coefficients La [3]: 13.7
Distribution coefficients Mo [3]: 0.094
Distribution coefficients Nd [3]: 68
Distribution coefficients Pd [3]: 0.041
Distribution coefficients Pr [3]: 32
Distribution coefficients Rb [3]: 0.0081
Distribution coefficients Rh [3]: 0.00067
Distribution coefficients Ru [3]: 0.24
Distribution coefficients Sm [3]: 378
Distribution coefficients Y [3]: 1658
Distribution coefficients Zr [3]: 0.022
Distribution coefficients Ag [4]: 0.013
Distribution coefficients Ba [4]: 0.0002
Distribution coefficients Cd [4]: 0.037
Distribution coefficients Ce [4]: 32
Distribution coefficients Cf-252 [4]: 1816
Distribution coefficients Cm-244 [4]: 286
Distribution coefficients Cs [4]: 0.000604
Distribution coefficients Eu [4]: 513
Distribution coefficients Eu-152 [4]: 553
Distribution coefficients Gd [4]: 258
Distribution coefficients La [4]: 18
Distribution coefficients Mo [4]: 0.115
Distribution coefficients Nd [4]: 120
Distribution coefficients Pd [4]: 0.043
Distribution coefficients Pr [4]: 53
Distribution coefficients Rb [4]: 0.0082
Distribution coefficients Rh [4]: 0.00069
Distribution coefficients Ru [4]: 0.17
Distribution coefficients Sm [4]: 451
Distribution coefficients Y [4]: 1708
Distribution coefficients Zr [4]: 0.099
Distribution coefficients Ag [5]: 39
Distribution coefficients Ba [5]: 0.00019
Distribution coefficients Cd [5]: 0.033
Distribution coefficients Ce [5]: 16
Distribution coefficients Cf-252 [5]: 692
Distribution coefficients Cm-244 [5]: 95
Distribution coefficients Cs [5]: 0.000082
Distribution coefficients Eu [5]: 327
Distribution coefficients Eu-152 [5]: 294
Distribution coefficients Gd [5]: 122
Distribution coefficients La [5]: 10
Distribution coefficients Mo [5]: 0.066
Distribution coefficients Nd [5]: 55
Distribution coefficients Pd [5]: 2.6
Distribution coefficients Pr [5]: 26
Distribution coefficients Rb [5]: 0.0080
Distribution coefficients Rh [5]: 0.00069
Distribution coefficients Ru [5]: 0.27
Distribution coefficients Sm [5]: 233
Distribution coefficients Y [5]: 1773
Distribution coefficients Zr [5]: 295
Distribution coefficients Ag [6]: 37
Distribution coefficients Ba [6]: 0.00019
Distribution coefficients Cd [6]: 0.034
Distribution coefficients Ce [6]: 23
Distribution coefficients Cf-252 [6]: 2079
Distribution coefficients Cm-244 [6]: 191
Distribution coefficients Cs [6]: 0.000084
Distribution coefficients Eu [6]: 685
Distribution coefficients Eu-152 [6]: 293
Distribution coefficients Gd [6]: 166
Distribution coefficients La [6]: 13
Distribution coefficients Mo [6]: 0.069
Distribution coefficients Nd [6]: 94
Distribution coefficients Pd [6]: 2.5
Distribution coefficients Pr [6]: 39
Distribution coefficients Rb [6]: 0.0078
Distribution coefficients Rh [6]: 0.00066
Distribution coefficients Ru [6]: 0.25
Distribution coefficients Sm [6]: 615
Distribution coefficients Y [6]: 1753
Distribution coefficients Zr [6]: 133
